From patent US20250032476A1, “ALPHA-2A ADRENERGIC RECEPTOR MODULATORS AND USES THEREOF” (The Regents of the University of California, priority 2021, published 2025)
Like-named read-outs stand apart in the source and are kept apart here.

Legend:
[1] = Pharmacokinetics in mice (plasma, brain, CSF); assay type: in vivo
analgesia in vivo = details: result in words, Table 6
human α2AAR [2] = biological target: T1, human α2AAR (Homo sapiens (Human), UniProt P08913); assay: Gαi G protein activation, BRET biosensor assay in HEK293T cells; details: for Emax: HEK-293T
T1 sequence (P08913 whole entry): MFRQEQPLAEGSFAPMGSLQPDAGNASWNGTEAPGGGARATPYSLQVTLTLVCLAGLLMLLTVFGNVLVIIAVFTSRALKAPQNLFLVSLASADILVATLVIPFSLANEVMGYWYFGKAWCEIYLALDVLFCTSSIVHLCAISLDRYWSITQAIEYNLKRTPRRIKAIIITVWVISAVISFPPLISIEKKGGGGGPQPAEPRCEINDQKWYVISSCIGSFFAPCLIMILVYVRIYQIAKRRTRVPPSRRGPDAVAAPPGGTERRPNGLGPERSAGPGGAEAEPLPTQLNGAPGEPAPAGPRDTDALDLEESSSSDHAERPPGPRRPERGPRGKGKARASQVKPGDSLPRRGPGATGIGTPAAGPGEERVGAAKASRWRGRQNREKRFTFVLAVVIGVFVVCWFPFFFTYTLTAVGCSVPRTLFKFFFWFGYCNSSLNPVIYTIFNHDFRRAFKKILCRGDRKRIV

α2AAR F427^7.39 mutant = α2AAR F427^7.39 mutant (Homo sapiens (Human), UniProt P08913, F427A); assay: Gi activation (BRET) at α2AAR F427^7.39 mutant; assay type: cell-based
α2AAR F427^7.39 mutant, sequence (P08913 whole entry F427A): as the sequence (P08913 whole entry) above, with F427A counted along it
Protocol: (§1) Investigating the sensitivity of selected ligands to the receptor mutants α2AAR-D128^3.32A, α2AAR-D128^3.32T, α2AAR-D128^3.32L, α2AAR-S215^5.42A, α2AAR-Y409^6.55A, α2AAR-Y409^6.55T, α2AAR-Y409^6.55F, α2AAR-F427^7.39F, α2AAR-Y431^7.43A, and α2AAR-Y431^7.43F was determined by monitored G protein stimulation as described above transfecting the appropriate receptor together with Gαi1-RLucII and Gβ1/Gγ1-GFP10. […] Three to ten experiments were done in duplicate.
(§2) The sensitivity of selected ligands to the receptor mutants α2AAR-D128^3.32A, α2AAR-D128^3.32T, α2AAR-D128^3.32L, α2AAR-S215^5.42A, α2AAR-Y409^6.55A, α2AAR-Y409^6.55T, α2AAR-Y409^6.55F, α2AAR-F427^7.39F, α2AAR-Y431^7.43A, and α2AAR-Y431^7.43F was monitored by G protein activation as described above transfecting the appropriate receptor together with Gαi1-RLucII and Gβ1/Gγ2-GFP10. […] Similarly, the effect of the α2AAR-D128^3.32A, α2AAR-S215^5.42A, α2AAR-Y409^6.55A, α2AAR-Y409^6.55F, α2AAR-F427^7.39F, α2AAR-Y431^7.43A, and α2AAR-Y431^7.43F mutations on arrestin recruitment was evaluated as described above transfecting the appropriate receptor together with CAAX-rGFP, GRK2 and β-arrestin-2-RLucII. Data was analyzed as ligand induced changes in BRET compared to vehicle (deltaBRET). Three to seven experiments were done in duplicate.

SNI mice = assay: Spared-nerve injury (SNI) model of neuropathic pain, von Frey mechanical thresholds; assay type: in vivo
Protocol: Spared-nerve injury (SNI) model of neuropathic pain. Under isoflurane anesthesia, two of the three branches of the sciatic nerve were ligated and transected distally, leaving the sural nerve intact. Behavior was tested 7 to 14 days after injury and in situ hybridization was performed one week post-injury.

human α2AAR [3] = biological target: T1, human α2AAR; assay: β-arrestin-2 recruitment, BRET biosensor assay in HEK293T cells; details: HEK-293T
α2AAR-S215^5.42A = α2AAR-S215^5.42A (Homo sapiens (Human), UniProt P08913, S215A); assay: Gi activation (BRET) at α2AAR S215^5.42A mutant; assay type: cell-based; details: versus wild type
α2AAR-S215^5.42A, sequence (P08913 whole entry S215A): as the sequence (P08913 whole entry) above, with S215A counted along it
Protocol: as §1, §2

[4] = mouse, plasma, ip, I.P. 10 mg/kg

- Fold greater CSF Cmax than PS75 ([1]; 10 mg/kg i.p.): 4 fold
- half-life ([1]; C57BL/6N ('9087, '7075, '4622), CD-1 (PS75), mouse, CSF, ip, I.P. 10 mg/kg, read-out: T ½ CSF (converted)): 13.2 min
- AUC Brain ([1]; I.P. 10 mg/kg): 814000 ng·min/mL
- AUC CSF ([1]; I.P. 10 mg/kg): 12000 ng·min/mL
- Cmax Brain ([1]; I.P. 10 mg/kg): 8570 ng/mL
- Cmax CSF ([1]; I.P. 10 mg/kg): 412 ng/mL
- half-life ([1]; mouse, brain, ip, I.P. 10 mg/kg, read-out: T ½ Brain (converted)): 43.8 min
- AUC [1, 4]: 952 ng·h/mL
- Cmax [1, 4]: 694 ng/mL
- half-life ([1]; mouse, plasma, ip, I.P. 10 mg/kg, read-out: T ½ Plasma (converted)): 38.4 min
- Fold increased Gi potency compared to ‘9087 (human α2AAR [2]): 13 fold
- EC50 (human α2AAR [2]; Gi EC50 ± SE, BRET biosensor, human α2AAR (Table 3)): 4.1 nM
- EC50 (human α2AAR [2]; Gαi EC50, BRET biosensor, HEK293T, human α2AAR): 4.1 nM
- Emax (human α2AAR [2]; read-out: Gi Emax ± SEM): 93%
- Emax (human α2AAR [2]; read-out: Gαi Emax): 93%
- Gi activity at F427^7.39 substitution (α2AAR F427^7.39 mutant): eliminated
- Emax (human α2AAR [3]; read-out: β-Arr-2 Emax @ 0.1 mM): 10%
- Emax at 100 µM (human α2AAR [3]; read-out: β-arrestin-2 Emax @ 0.1 mM): 10 ± 7%
- Fold improvement of Gi potency at S215^5.42A (α2AAR-S215^5.42A): 11 fold
Structure (SMILES): Fc1cccc2c(Nc3ccncc3)cccc12 [Compound 7075, N-(5-fluoronaphthalen-1-yl)pyridin-4-amine]
- analgesic in vivo (analgesia in vivo): analgesic in vivo
- Effect of atipamezole on the agonist's effect in SNI mice (SNI mice; atipamezole 2 mg/kg, 15 minutes prior): reversed by atipamezole
- Mechanical thresholds / anti-allodynic effect in SNI mice (SNI mice; systemic injection): exhibited anti-allodynic effects
- Reversal of mechanical hypersensitivity in SNI mice (SNI mice; systemic injection): completely reversed the mechanical hypersensitivity
